Experimental data taken from patent publication EP1921115B1, “Use of 3-hydroxy-cyclohex-2-enone azo based dyes in optical layers” (Clariant Finance (BVI) Limited, priority 2006, dated 2008).

What was measured:
Type in all cases: physicochemical
[1] = UV-vis spectra (λ max and ε); settings: dissolved in CH2Cl2, DMSO or in tfp
Procedure: For UV-vis spectra, λ max and ε values of a compound are determined by using an UV-vis spectrophotometer, the compound was dissolved in CH2Cl2, DMSO or in tfp. The values are obtained by balancing the measurements performed on compound solutions at three different concentrations.

[2] = Thermal decomposition: decomposition point (DP); settings: sealed aluminum pan, 25 to 400°C, heating rate 10°C/min, nitrogen flow, single measurement
Procedure: For the determination of DP and HR, the compound is incorporated into a sealed aluminum pan. Analysis conditions are as following: Temperature range from 25 to 400°C, heating rate 10°C/min, nitrogen flow of 50 ml/min. Values are determined by single measurement.

[3] = Solubility in 2,2,3,3 tetrafluoropropanol; settings: in 2,2,3,3 tetrafluoropropanol at 25 °C
Source text: The solubilities were differentiated into three groups: A Good solubility (> 20 g / L) B Medium solubility (>= 10 and <= 20 g / L) C Poor solubility (<10 g / L)

## CCOC(=O)C1C(O)=C(N=Nc2ccc(C)cc2[N+](=O)[O-])C(=O)CC1(C)C (centres unmarked) [compound of formula (1)]
[1]; Table A, azo ligands
  ε (at λ max): 63 L/g/cm
[1]
  λ max: 427 nm
[2]
  DP: 282 °C
[3]
  Solubility: A (Good solubility (> 20 g / L))

## CCOC(=O)C1C(O)=C(N=Nc2cc([N+](=O)[O-])ccc2O)C(=O)CC1(C)C (centres unmarked) [compound of formula (2)]
[1]; Table A, azo ligands
  ε (at λ max): 52 L/g/cm
[1]
  λ max: 411 nm
[2]
  DP: 253 °C
[3]
  Solubility: A (Good solubility (> 20 g / L))

## CCOC(=O)C1C(O)=C(N=Nc2ccc(Cl)cc2[N+](=O)[O-])C(=O)CC1(C)C (centres unmarked) [compound of formula (3)]
[1]; Table A, azo ligands
  ε (at λ max): 52 L/g/cm
[1]
  λ max: 421 nm
[2]
  DP: 274 °C
[3]
  Solubility: A (Good solubility (> 20 g / L))

## CCOC(=O)C1C(O)=C(N=Nc2ccccc2[N+](=O)[O-])C(=O)CC1(C)C (centres unmarked) [compound of formula (4)]
[1]; Table A, azo ligands
  ε (at λ max): 52 L/g/cm
[1]
  λ max: 424 nm
[2]
  DP: 238 °C
[3]
  Solubility: B (Medium solubility (>= 10 and <= 20 g / L))

## CCOC(=O)C1C(O)=C(N=Nc2ccc(S(C)(=O)=O)cc2[N+](=O)[O-])C(=O)CC1(C)C (centres unmarked) [compound of formula (5)]
[1]; Table A, azo ligands
  ε (at λ max): 19 L/g/cm
[1]
  λ max: 384 nm
[2]
  DP: 200 °C
[3]
  Solubility: A (Good solubility (> 20 g / L))

## CCOC(=O)C1C(O)=C(N=Nc2ccc(OC)cc2[N+](=O)[O-])C(=O)CC1(C)C (centres unmarked) [compound of formula (6)]
[1]; Table A, azo ligands
  ε (at λ max): 56 L/g/cm
[1]
  λ max: 448 nm
[2]
  DP: 273 °C
[3]
  Solubility: B (Medium solubility (>= 10 and <= 20 g / L))

## CCOC(=O)C1C(O)=C(N=Nc2ccc(C(F)(F)F)cc2[N+](=O)[O-])C(=O)CC1(C)C (centres unmarked) [compound of formula (7)]
[1]; Table A, azo ligands
  ε (at λ max): 32 L/g/cm
[1]
  λ max: 399 nm
[2]
  DP: 276 °C
[3]
  Solubility: A (Good solubility (> 20 g / L))

## CCOC(=O)C1C(O)=C(N=Nc2c(Br)cc([N+](=O)[O-])cc2C#N)C(=O)CC1(C)C (centres unmarked) [compound of formula (8)]
[1]; Table A, azo ligands
  ε (at λ max): 55 L/g/cm
[1]
  λ max: 396 nm
[2]
  DP: 226 °C
[3]
  Solubility: B (Medium solubility (>= 10 and <= 20 g / L))

## CCOC(=O)C1C(O)=C(N=Nc2ccc([N+](=O)[O-])cc2Br)C(=O)CC1(C)C (centres unmarked) [compound of formula (9)]
[1]; Table A, azo ligands
  ε (at λ max): 72 L/g/cm
[1]
  λ max: 400 nm
[2]
  DP: 285 °C
[3]
  Solubility: A (Good solubility (> 20 g / L))

## CCOC(=O)C1C(O)=C(N=Nc2c(C)cc(C)cc2C)C(=O)CC1(C)C (centres unmarked) [compound of formula (10)]
[1]; Table A, azo ligands
  ε (at λ max): 55 L/g/cm
[1]
  λ max: 413 nm
[2]
  DP: 248 °C
[3]
  Solubility: A (Good solubility (> 20 g / L))

## CCOC(=O)C1C(O)=C(N=Nc2ccc([N+](=O)[O-])cc2OC)C(=O)CC1(C)C (centres unmarked) [compound of formula (11)]
[1]; Table A, azo ligands
  ε (at λ max): 44 L/g/cm
[1]
  λ max: 432 nm
[2]
  DP: 288 °C
[3]
  Solubility: A (Good solubility (> 20 g / L))

## CCOC(=O)C1C(O)=C(N=Nc2cc(OC)c(S(N)(=O)=O)cc2OC)C(=O)CC1(C)C (centres unmarked) [compound of formula (12)]
[1]; Table A, azo ligands
  ε (at λ max): 25 L/g/cm
[1]
  λ max: 438 nm
[2]
  DP: 279 °C
[3]
  Solubility: A (Good solubility (> 20 g / L))

## Cc1ccc(N=NC2=C(O)C(C#N)C(C)(C)CC2=O)c([N+](=O)[O-])c1 (centres unmarked) [compound of formula (13)]
[1]; Table A, azo ligands
  ε (at λ max): 52 L/g/cm
[1]
  λ max: 442 nm
[2]
  DP: 270 °C
[3]
  Solubility: C (Poor solubility (<10 g / L))

## CC1(C)CC(=O)C(N=Nc2ccc(Cl)cc2[N+](=O)[O-])=C(O)C1C#N (centres unmarked) [compound of formula (14)]
[1]; Table A, azo ligands
  ε (at λ max): 42 L/g/cm
[1]
  λ max: 437 nm
[2]
  DP: 222 °C
[3]
  Solubility: A (Good solubility (> 20 g / L))

## COc1ccc(N=NC2=C(O)C(C#N)C(C)(C)CC2=O)c([N+](=O)[O-])c1 (centres unmarked) [compound of formula (15)]
[1]; Table A, azo ligands
  ε (at λ max): 50 L/g/cm
[1]
  λ max: 458 nm
[2]
  DP: 154 °C
[3]
  Solubility: C (Poor solubility (<10 g / L))

## CC1(C)CC(=O)C(N=Nc2cc([N+](=O)[O-])ccc2O)=C(O)C1C#N (centres unmarked) [compound of formula (16)]
[1]; Table A, azo ligands
  ε (at λ max): 17 L/g/cm
[1]
  λ max: 423 nm
[2]
  DP: 249 °C
[3]
  Solubility: C (Poor solubility (<10 g / L))

## CCOC(=O)C1C(O)=C(N=Nc2c(F)c(F)c(F)c(F)c2F)C(=O)CC1(C)C (centres unmarked) [compound of formula (17)]
[1]; Table A, azo ligands
  ε (at λ max): 29 L/g/cm
[1]
  λ max: 326 nm
[2]
  DP: 157 °C
[3]
  Solubility: A (Good solubility (> 20 g / L))

## CCOC(=O)C1C([O][Cu][O]C2=C(N=Nc3ccc([N+](=O)[O-])cc3OC)C(=O)CC(C)(C)C2C(=O)OCC)=C(N=Nc2ccc([N+](=O)[O-])cc2OC)C(=O)CC1(C)C (centres unmarked) [compound of formula (18)]
[1]; Table B, metal complexes
  ε (at λ max): 50 L/g/cm
[1]
  λ max: 431 nm
[2]
  DP: 276 °C
[3]
  Solubility: C (Poor solubility (<10 g / L))

## CCOC(=O)C1C([O][Ni][O]C2=C(N=Nc3ccc([N+](=O)[O-])cc3OC)C(=O)CC(C)(C)C2C(=O)OCC)=C(N=Nc2ccc([N+](=O)[O-])cc2OC)C(=O)CC1(C)C (centres unmarked) [compound of formula (19)]
[1]; Table B, metal complexes
  ε (at λ max): 67 L/g/cm
[1]
  λ max: 442 nm
[2]
  DP: 278 °C
[3]
  Solubility: A (Good solubility (> 20 g / L))

## CCOC(=O)C1C([O][Cu][O]C2=C(N=Nc3cc(OC)c(S(N)(=O)=O)cc3OC)C(=O)CC(C)(C)C2C(=O)OCC)=C(N=Nc2cc(OC)c(S(N)(=O)=O)cc2OC)C(=O)CC1(C)C (centres unmarked) [compound of formula (20)]
[1]; Table B, metal complexes
  ε (at λ max): 42 L/g/cm
[1]
  λ max: 441 nm
[2]
  DP: 314 °C
[3]
  Solubility: B (Medium solubility (>= 10 and <= 20 g / L))
